Data reported in PubChem BioAssay AID330 (DTP/NCI, 2004).
“And” between values parts separate entries of the source, which are not always exact repeats. Equal entries are not always repeated. Toxic doses and inconclusive results are not listed. Peptide text beside a SMILES is read from it. * marks the point of attachment. Cbz = O=C(OCc1ccccc1)*; βAla = NCCC(=O)O

System: P388 leukemia ip, CD2F1 mice, survival T/C
Assay: NCI In Vivo Anticancer Drug Screen. Data for tumor model P388 Leukemia (intraperitoneal) in CD2F1 (CDF1) mice
Settings: endpoint: median survival time, higher = longer survival
In short: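 Mice carrying the transplanted tumor received test compound or vehicle. Survival was recorded in each group, and the value is the treated-group measurement divided by that of the vehicle-treated control group.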

[1] = dose: 100.0 mg/kg/injection, schedule: Q04DX003 (ip), vehicle: saline with Tween-80
[2] = dose: 200.0 mg/kg/injection, schedule: Q04DX003 (ip), vehicle: saline with Tween-80
[3] = dose: 400.0 mg/kg/injection, schedule: Q04DX003 (ip), vehicle: saline with Tween-80
[4] = dose: 50.0 mg/kg/injection, schedule: Q01DX009 (ip), vehicle: Klucel (hydroxypropylcellulose) (HPC)
[5] = dose: 50.0 mg/kg/injection, schedule: Q01DX005 (ip), vehicle: saline with Tween-80

For `N#CCC[P+](CCC#N)(CCC#N)CCN1C(=O)c2ccccc2C1=O`, the T/C (dose: 0.78 mg/kg/injection, schedule: Q01DX009 (ip), vehicle: water) was 96 % of control, the T/C (dose: 1.56 mg/kg/injection, schedule: Q01DX009 (ip), vehicle: water) was 89 % of control and the T/C (dose: 3.13 mg/kg/injection, schedule: Q01DX009 (ip), vehicle: water) was 100 % of control. For the same molecule, the T/C (dose: 6.25 mg/kg/injection, schedule: Q01DX009 (ip), vehicle: water) was 115 % of control, the T/C (dose: 12.5 mg/kg/injection, schedule: Q01DX009 (ip), vehicle: water) was 108 % of control and the T/C (dose: 25.0 mg/kg/injection, schedule: Q01DX009 (ip), vehicle: water) was 102 % of control and 117 % of control. The T/C (dose: 50.0 mg/kg/injection, schedule: Q01DX009 (ip), vehicle: water) was 100 % of control, the T/C (dose: 100.0 mg/kg/injection, schedule: Q01DX009 (ip), vehicle: water) was 100 % of control and the T/C (dose: 200.0 mg/kg/injection, schedule: Q01DX009 (ip), vehicle: water) was 101 % of control.
In the case of `Ic1ncnc2c1ncn2C1CCCCO1` (centres undefined), the T/C (dose: 100.0 mg/kg/injection, schedule: Q01DX009 (ip), vehicle: saline with Tween-80) is reported as 95 % of control, the T/C (dose: 100.0 mg/kg/injection, schedule: Q01DX009 (ip), vehicle: saline) is reported as 95 % of control and the T/C [1] is reported as 100 % of control. The T/C (dose: 200.0 mg/kg/injection, schedule: Q01DX009 (ip), vehicle: saline with Tween-80) was 100 % of control, the T/C (dose: 200.0 mg/kg/injection, schedule: Q01DX009 (ip), vehicle: saline) was 104 % of control and the T/C [2] was 91 % of control. The T/C (dose: 400.0 mg/kg/injection, schedule: Q01DX009 (ip), vehicle: saline with Tween-80) was 90 % of control and the T/C [3] was 95 % of control.
For `COc1ccc(Cc2nnc(C)c3c(C)[nH]nc23)cc1OC`, the T/C [4] was 92 % of control and the T/C (dose: 100.0 mg/kg/injection, schedule: Q01DX009 (ip), vehicle: Klucel (hydroxypropylcellulose) (HPC)) was 92 % of control.
In the case of `COc1cccc2c1C(=N)c1c(O)c3c(c(O)c1C2=O)CC(O)(C(=O)CO)CC3OC1CC(N2CCOCC2C#N)C(O)C(C)O1` (centres undefined), the T/C (dose: 0.25 mg/kg/injection, schedule: Q04DX003 (ip), vehicle: saline) is reported as 117 % of control, the T/C (dose: 0.5 mg/kg/injection, schedule: Q04DX003 (ip), vehicle: saline) is reported as 157 % of control and the T/C (dose: 1.0 mg/kg/injection, schedule: Q04DX003 (ip), vehicle: saline) is reported as 111 % of control and 97 % of control.
With `C=CCn1ccn(C)c1=S` the T/C [1] was 101 % of control, the T/C [2] was 98 % of control and the T/C [3] was 102 % of control.
`S=C(SCc1nc(-c2ccc(Cl)cc2)no1)N1CCSCC1` was tested, and the T/C (dose: 60.0 mg/kg/injection, schedule: Q01DX005 (ip), vehicle: saline with Tween-80) was 97 % of control, the T/C (dose: 120.0 mg/kg/injection, schedule: Q01DX005 (ip), vehicle: saline with Tween-80) was 92 % of control and the T/C (dose: 240.0 mg/kg/injection, schedule: Q01DX005 (ip), vehicle: saline with Tween-80) was 105 % of control.
`CC(C)(C)OC(=O)NC(CCCCNC(=O)OCc1ccccc1)C(=O)NC(CCCCNC(=O)OCc1ccccc1)C(=O)NC(CCCCNC(=O)OCc1ccccc1)C(=O)OCc1ccccc1` (centres undefined) was tested, and the T/C (dose: 12.5 mg/kg/injection, schedule: Q01DX005 (ip), vehicle: saline with Tween-80) was 100 % of control, the T/C (dose: 25.0 mg/kg/injection, schedule: Q01DX005 (ip), vehicle: saline with Tween-80) was 97 % of control and the T/C [5] was 100 % of control.
In the case of `O=C(Oc1ccc[nH]c1=O)C1CCCCC1`, the T/C (dose: 50.0 mg/kg/injection, schedule: Q01DX005 (ip), vehicle: Klucel (hydroxypropylcellulose) (HPC)) is reported as 108 % of control and 96 % of control, the T/C (dose: 100.0 mg/kg/injection, schedule: Q01DX005 (ip), vehicle: Klucel (hydroxypropylcellulose) (HPC)) is reported as 100 % of control and 89 % of control and the T/C (dose: 200.0 mg/kg/injection, schedule: Q01DX005 (ip), vehicle: Klucel (hydroxypropylcellulose) (HPC)) is reported as 102 % of control and 86 % of control. The T/C (dose: 400.0 mg/kg/injection, schedule: Q01DX005 (ip), vehicle: Klucel (hydroxypropylcellulose) (HPC)) was 92 % of control and 97 % of control.
For `COC(=O)/C=C1/Nc2c(N)nc(N)nc2NC1=O`, the T/C (dose: 100.0 mg/kg/injection, schedule: Q04DX003 (ip), vehicle: saline) was 108 % of control, the T/C (dose: 200.0 mg/kg/injection, schedule: Q04DX003 (ip), vehicle: saline) was 94 % of control and the T/C (dose: 400.0 mg/kg/injection, schedule: Q04DX003 (ip), vehicle: saline) was 95 % of control.
With `O=[N+]([O-])c1ccc(-n2[nH]nnc2=S)cc1` the T/C (dose: 50.0 mg/kg/injection, schedule: Q04DX003 (ip), vehicle: saline with Tween-80) was 98 % of control and 104 % of control, the T/C [1] was 100 % of control and 104 % of control and the T/C [2] was 98 % of control and 91 % of control.
In the case of `FC12CCC(c3ccccc3)(CC1)CC2`, the T/C (dose: 100.0 mg/kg/injection, schedule: Q04DX003 (ip), vehicle: Klucel (hydroxypropylcellulose) (HPC)) is reported as 98 % of control, the T/C (dose: 200.0 mg/kg/injection, schedule: Q04DX003 (ip), vehicle: Klucel (hydroxypropylcellulose) (HPC)) is reported as 100 % of control and the T/C (dose: 400.0 mg/kg/injection, schedule: Q04DX003 (ip), vehicle: Klucel (hydroxypropylcellulose) (HPC)) is reported as 103 % of control.
`NC1=C(O)C(=O)C(c2cccnc2)O1` (centres undefined) was tested, and the T/C (dose: 30.0 mg/kg/injection, schedule: Q01DX005 (ip), vehicle: Klucel (hydroxypropylcellulose) (HPC)) was 102 % of control, the T/C (dose: 60.0 mg/kg/injection, schedule: Q01DX005 (ip), vehicle: Klucel (hydroxypropylcellulose) (HPC)) was 96 % of control and the T/C (dose: 120.0 mg/kg/injection, schedule: Q01DX005 (ip), vehicle: Klucel (hydroxypropylcellulose) (HPC)) was 86 % of control and 93 % of control. For the same molecule, the T/C (dose: 240.0 mg/kg/injection, schedule: Q01DX005 (ip), vehicle: Klucel (hydroxypropylcellulose) (HPC)) was 86 % of control.
In the case of `C=C1C2CCC3C45C=NCC(C)(CCC4)C5CCC3(C2)C1OC(C)=O` (centres undefined), the T/C (dose: 2.0 mg/kg/injection, schedule: Q01DX009 (ip), vehicle: Klucel (hydroxypropylcellulose) (HPC)) is reported as 104 % of control, the T/C (dose: 4.0 mg/kg/injection, schedule: Q01DX009 (ip), vehicle: Klucel (hydroxypropylcellulose) (HPC)) is reported as 94 % of control and the T/C (dose: 8.0 mg/kg/injection, schedule: Q01DX009 (ip), vehicle: Klucel (hydroxypropylcellulose) (HPC)) is reported as 104 % of control. For the same molecule, the T/C (dose: 16.0 mg/kg/injection, schedule: Q01DX009 (ip), vehicle: Klucel (hydroxypropylcellulose) (HPC)) was 93 % of control.
`O=C(O)CNC(=O)CNC(=O)CCNC(=O)OCc1ccccc1` ({Cbz-βAla}-Gly-Gly-OH) was tested, and the T/C [5] was 101 % of control, the T/C (dose: 100.0 mg/kg/injection, schedule: Q01DX005 (ip), vehicle: saline with Tween-80) was 97 % of control and the T/C (dose: 200.0 mg/kg/injection, schedule: Q01DX005 (ip), vehicle: saline with Tween-80) was 108 % of control.
For `c1ccc(CNc2ccnc3c2ccc2ccccc23)cc1`, the T/C (dose: 100.0 mg/kg/injection, schedule: Q01DX001 (ip), vehicle: Klucel (hydroxypropylcellulose) (HPC)) was 100 % of control, the T/C (dose: 200.0 mg/kg/injection, schedule: Q01DX001 (ip), vehicle: Klucel (hydroxypropylcellulose) (HPC)) was 97 % of control and the T/C (dose: 400.0 mg/kg/injection, schedule: Q01DX001 (ip), vehicle: Klucel (hydroxypropylcellulose) (HPC)) was 100 % of control.
For `CC(=O)OCCCN1/C(=C/C=C2\CCC(/C=C/c3sc4cc5ccccc5cc4[n+]3CCCOC(C)=O)=C2N(c2ccccc2)c2ccccc2)Sc2cc3ccccc3cc21`, the T/C (dose: 12.5 mg/kg/injection, schedule: Q01DX009 (ip), vehicle: Klucel (hydroxypropylcellulose) (HPC)) was 110 % of control, the T/C (dose: 25.0 mg/kg/injection, schedule: Q01DX009 (ip), vehicle: Klucel (hydroxypropylcellulose) (HPC)) was 110 % of control and the T/C [4] was 111 % of control.
In the case of `N[C@@H](Cc1c[nH]c2ccccc12)C(=O)Nc1nncs1`, the T/C (dose: 18.75 mg/kg/injection, schedule: Q01DX005 (ip), vehicle: saline) is reported as 100 % of control and 102 % of control, the T/C (dose: 37.5 mg/kg/injection, schedule: Q01DX005 (ip), vehicle: saline) is reported as 98 % of control and 101 % of control and the T/C (dose: 50.0 mg/kg/injection, schedule: Q04DX002 (ip), vehicle: suspension in saline) is reported as 100 % of control. For the same molecule, the T/C (dose: 75.0 mg/kg/injection, schedule: Q01DX005 (ip), vehicle: saline) was 100 % of control and 101 % of control, the T/C (dose: 100.0 mg/kg/injection, schedule: Q04DX002 (ip), vehicle: suspension in saline) was 100 % of control and the T/C (dose: 150.0 mg/kg/injection, schedule: Q01DX005 (ip), vehicle: saline) was 99 % of control and 100 % of control. The T/C (dose: 200.0 mg/kg/injection, schedule: Q04DX002 (ip), vehicle: suspension in saline) was 99 % of control, the T/C (dose: 300.0 mg/kg/injection, schedule: Q01DX005 (ip), vehicle: saline) was 106 % of control and 109 % of control and the T/C (dose: 600.0 mg/kg/injection, schedule: Q04DX002 (ip), vehicle: saline) was 171 % of control. The T/C (dose: 800.0 mg/kg/injection, schedule: Q04DX002 (ip), vehicle: suspension in saline) was 151 % of control.
In the case of `CCCCCCC(=O)/C=C/c1cccc(OCc2cccc(Cl)c2)c1`, the T/C (dose: 50.0 mg/kg/injection, schedule: Q01DX005 (ip), vehicle: saline + Tween-80 + alcohol) is reported as 96 % of control, the T/C (dose: 100.0 mg/kg/injection, schedule: Q01DX005 (ip), vehicle: saline + Tween-80 + alcohol) is reported as 91 % of control and the T/C (dose: 200.0 mg/kg/injection, schedule: Q01DX005 (ip), vehicle: saline + Tween-80 + alcohol) is reported as 96 % of control.
